From US10363239B2, “Method for inhibiting growth of cancer cells” (Pain Therapeutics, Inc., priority 2013, dated 2019)
Like-named read-outs stand apart in the source and are kept apart here.

Tests used:
[1] = biological target: FLNA pentapeptide of SEQ ID NO: 1 (Bn-VAKGL) (Homo sapiens, UniProt P21333); assay: FITC-NLX-based FLNA screening assay (inhibition of FITC-naloxone binding to Bn-VAKGL on streptavidin plates); details: 10 nM FITC-NLX
[2] = tested on: mu opiate receptor (MOR); assay: MOR agonist activity using [35S]GTPγS binding assay in striatal membranes; type: biochemical; details: for MOR agonist activity ([35S]GTPγS binding), FLNA-Binding Compound as Agonist 1 μM + BFNA: 1 μM compound + 1 μM β-funaltrexamine
How it was run: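 Striatal membranes (200 μg) were preincubated 5 min at 30 °C in HEPES pH 7.5 with 100 mM NaCl, 1 mM MgCl2 and 0.5 nM [35S]GTPγS, then 5 min more with 0.1–10 μM compound. Gαo was immunoprecipitated and bound radioactivity counted by scintillation.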

[3] = FLNA-binding compound 0.01 μM, read-out: Percent Binding Inhibition
[4] = FLNA-binding compound 0.1 μM, read-out: Percent Binding Inhibition
[5] = FLNA-binding compound 1 μM, read-out: Percent Binding Inhibition
[6] = Series B, 0.1 μM compound, relative to DAMGO
[7] = Series B, 0.1 μM compound, [35S]GTPγS binding to Gαo, striatal membranes
[8] = Series B, 1 μM compound + 1 μM β-FNA
[9] = Series B, 1 μM compound + β-FNA, relative to DAMGO + BFNA
[10] = Series B, 1 μM compound, relative to DAMGO
[11] = Series B, 1 μM compound, [35S]GTPγS binding to Gαo, striatal membranes
[12] = 0.1 μM compound relative to DAMGO
[13] = 1 μM compound + BFNA relative to DAMGO + BFNA
[14] = 1 μM compound relative to DAMGO
[15] = read-out: Percent Binding Inhibition, FLNA-binding compound 0.01 μM
[16] = read-out: Percent Binding Inhibition, FLNA-binding compound 0.1 μM
[17] = read-out: Percent Binding Inhibition, FLNA-binding compound 1 μM
[18] = Series C-1, 0.1 μM compound, relative to DAMGO
[19] = Series C-1, 0.1 μM compound, [35S]GTPγS binding to Gαo, striatal membranes
[20] = Series C-1, 1 μM compound + 1 μM β-FNA
[21] = Series C-1, 1 μM compound + β-FNA, relative to DAMGO + BFNA
[22] = Series C-1, 1 μM compound, relative to DAMGO
[23] = Series C-1, 1 μM compound, [35S]GTPγS binding to Gαo, striatal membranes

| Structure (SMILES) | inhibition at 0.01 µM [1, 3] [%] | inhibition at 0.1 µM [1, 4] [%] | inhibition at 1 µM [1, 5] [%] | % DAMGO (0.1 μM) [2, 6] [%] | MOR agonist activity, percent [35S]GTPγS binding at the stated compound concentration [2, 7] [%] | MOR agonist activity, percent [35S]GTPγS binding at the stated compound concentration [2, 8] [%] | % DAMGO + BFNA [2, 9] [%] | % DAMGO (1 μM) [2, 10] [%] | MOR agonist activity, percent [35S]GTPγS binding at the stated compound concentration [2, 11] [%] | MOR agonist activity ([35S]GTPγS binding), FLNA-Binding Compound as Agonist 0.1 μM ([2]; 0.1 μM compound) [%] | % DAMGO (0.1 μM) [2, 12] [%] | MOR agonist activity ([35S]GTPγS binding), FLNA-Binding Compound as Agonist 1 μM ([2]; 1 μM compound) [%] | MOR agonist activity ([35S]GTPγS binding), FLNA-Binding Compound as Agonist 1 μM + BFNA [2] [%] | % DAMGO + BFNA [2, 13] [%] | % DAMGO (1 μM) [2, 14] [%] | inhibition at 0.01 µM [1, 15] [%] | inhibition at 0.1 µM [1, 16] [%] | inhibition at 1 µM [1, 17] [%] | % DAMGO (0.1 μM) [2, 18] [%] | Concentration of FLNA-Binding Compound as Agonist 0.1 μM [2, 19] [%] | other results |
| --- | --- | --- | --- | --- | --- | --- | --- | --- | --- | --- | --- | --- | --- | --- | --- | --- | --- | --- | --- | --- | --- |
| COc1c2c(cc3c1C(CC(=O)CCc1ccccc1)N(C)CC3)OCO2 (stereo not drawn) [Compound B0050] | 29.2 | 34.5 | 39.8 | 58.1 | 98.2 | 48.8 | 294.0 | 96.4 | 211.0 | – | – | – | – | – | – | – | – | – | – | – | – |
| COc1c2c(cc3c1OCO3)CCN(CC(O)COC1CC(C)CCC1C(C)C)C2 (stereo not drawn) [Compound A0061] | 27.5 | 38.9 | 42.8 | – | – | – | – | – | – | 110.3 | 70.7 | 197.1 | 10.7 | 26.8 | 85.5 | – | – | – | – | – | – |
| CCOc1ccc(C(=O)CC2c3c(cc4c(c3OC)OCO4)CC[N+]2(C)C)cc1F (stereo not drawn) [Compound B0020] | – | – | – | 30.1 | 51.6 | 24.9 | 47.8 | 68.0 | 181.6 | – | – | – | – | – | – | 38.1 | 45.5 | 50.6 | – | – | – |
| CC1CCC(C(C)C)C(OCC(O)CN2CCc3ccccc3C2)C1 (stereo not drawn) [Compound A0040] | – | – | – | – | – | – | – | – | – | 46.1 | 23.5 | 149.0 | 16.7 | 22.6 | 54.0 | 45 | 50.4 | 56.3 | – | – | – |
| O=C(OCc1ccccc1)c1ccc(S(=O)(=O)N2CCC3(CC2)OCCN3S(=O)(=O)c2ccc(C(=O)OCc3ccccc3)cc2)cc1 [Compound C0042] | 42.4 | 49.7 | 56.1 | – | – | – | – | – | – | – | – | – | – | – | – | – | – | – | 98.9 | 167.1 | Concentration of FLNA-Binding Compound as Agonist 1 μM + BFNA [2, 20]: 110.6%; % DAMGO + BFNA [2, 21]: 666.3%; % DAMGO (1 μM) [2, 22]: 119.2%; Concentration of FLNA-Binding Compound as Agonist 1 μM [2, 23]: 260.9% |
| CC1CCC(C(C)C)C(OCC(O)CN2CC(C)CC(C)C2)C1 (stereo not drawn) [Compound A0008] | 34.5 | 33.5 | 39.8 | – | – | – | – | – | – | 163.8 | 109.6 | 235.0 | 133.9 | 505.3 | 102.1 | – | – | – | – | – | – |
| COc1ccc(CCC(O)CC2c3c(cc4c(c3OC)OCO4)CC[N+]2(C)C)cc1 (stereo not drawn) [Compound B0049] | – | – | – | 102.8 | 181.6 | 133.2 | 506.5 | 143.1 | 364.0 | – | – | – | – | – | – | 32.2 | 40.1 | 47.1 | – | – | – |
| COc1ccc(NC(=O)N2CCC3(CC2)OCCN3C(=O)Nc2ccc(OC)cc2)cc1 [Compound C0151M] | – | – | – | – | – | – | – | – | – | – | – | – | – | – | – | 48.3 | 51.7 | 58.7 | 201.6 | 346.8 | Concentration of FLNA-Binding Compound as Agonist 1 μM + BFNA [2, 20]: 212.8%; % DAMGO + BFNA [2, 21]: 233.1%; % DAMGO (1 μM) [2, 22]: 122.0%; Concentration of FLNA-Binding Compound as Agonist 1 μM [2, 23]: 397.6% |
| O=S(=O)(c1ccc(Br)cc1F)N1CCC2(CC1)OCCN2S(=O)(=O)c1ccc(Br)cc1F [Compound C0078] | – | – | – | – | – | – | – | – | – | – | – | – | – | – | – | 46.6 | 48 | 50.5 | 82.4 | 138.1 | Concentration of FLNA-Binding Compound as Agonist 1 μM + BFNA [2, 20]: 170.7%; % DAMGO + BFNA [2, 21]: 359.4%; % DAMGO (1 μM) [2, 22]: 106.4%; Concentration of FLNA-Binding Compound as Agonist 1 μM [2, 23]: 236.6% |
